Assay results taken from ChEMBL document CHEMBL1156829 (Proc Natl Acad Sci U S A, 2008).

Tests used:
[1] = NOVARTIS: Cytotoxicity against human hepatocellular carcinoma cell line (Huh7); type: toxicity, cell-based, Huh-7; conditions: Huh7 cells (hepatocellular carcinoma cell line)
Plasmodium falciparum [2] = test: NOVARTIS: Inhibition of Plasmodium falciparum 3D7 (drug-susceptible) proliferation in erythrocyte-based infection assay; type: functional, organism-based; conditions: Plasmodium falciparum, 3D7
Plasmodium falciparum [3] = test: NOVARTIS: Inhibition of Plasmodium falciparum W2 (drug-resistant) proliferation in erythrocyte-based infection assay; type: functional, organism-based; conditions: Plasmodium falciparum, W2; read-out: EC50

Row | Compound | CC50 [1] [nM] | EC50 (Plasmodium falciparum [2]) [nM] | EC50 (Plasmodium falciparum [3]) [nM]
1 | CCCN1/C(=C/c2sc3ccccc3[n+]2CC)C=Cc2ccccc21 | > 10000 | 820 | 1340
2 | Ic1nc2ccccc2s1 | > 10000 | > 295 | 1350
3 | COc1ccccc1N1CCN(c2ccc(NC(=O)/C=C/c3ccc([N+](=O)[O-])cc3)cc2C(=O)NCCCN(C)C)CC1 | 921 | 290 | 121
4 | CCN(Cc1ccccc1)c1ncnc2ccc(Br)cc12 | 95300 | 7440 | > 12500
5 | C[N+](C)(C)c1ccc2cc(Br)c3ccccc3c2c1 | > 10000 | 759 | 1370
6 | CN1CCN(c2nc(NN=Cc3ccc(O)cc3)nc(Nc3ccc([N+](=O)[O-])cc3)n2)CC1 | > 10000 | > 1250 | 1340
7 | COC(=O)c1c(S(=O)(=O)NCCN(C)C)sc2c1CCN(CC(C)c1ccccc1)C2 (configuration not stated) | > 10000 | 1610 | > 1320
8 | CCCn1c(SCC(=O)Nc2ccccc2Cl)nc2c1c(=O)n(C)c(=O)n2C | > 10000 | > 1250 | 1320
9 | CC[n+]1c(C=Cc2ccc(C)cc2)ccc2ccccc21 | 20900 | 2990 | 2700
10 | Cc1nc([P+](c2ccccc2)(c2ccccc2)c2ccccc2)c(N2CCCCC2)o1 | 7120 | 761 | 967
11 | COc1ccc(CCNc2nc(NCCCN3CCCC3)ncc2C(=O)NCC(C)C)cc1OC | > 10000 | 809 | > 1350
12 | COc1ccc(NC(=O)CCCCCn2c(SCC(=O)NCC3CCCO3)nc3ccsc3c2=O)cc1 (configuration not stated) | > 10000 | > 725 | > 1320
13 | Cc1ccc(OCCCCN2CCOCC2)c([N+](=O)[O-])c1 | > 10000 | > 564 | > 1290
14 | Cc1ccc(CN2C(=O)C(O)(CC(=O)c3ccccc3)c3ccccc32)cc1 (configuration not stated) | > 64500 | 7010 | 8960
15 | CCOc1ccc2nc(C)cc(Nc3ccc(OC)cc3)c2c1 | 8350 | 419 | 1150
16 | O=[N+]([O-])c1cccc(Cl)c1N1CCN(S(=O)(=O)Cc2ccccc2)CC1 | > 10000 | > 1160 | 1300
17 | CCOC(=O)c1cc(-c2ccc(Cl)cc2Cl)[nH]c1N1CCN(c2ccc(OC)cc2)CC1 | > 13400 | 1370 | > 1730
18 | c1cncc(-c2nc3cc(-c4ccc5[nH]c(-c6cccnc6)nc5c4)ccc3[nH]2)c1 | > 10000 | 1410 | 1290
19 | CC(C)CNC(=O)c1cnc(NCCCN2CCCC2)nc1NCC1CCCCC1 | > 10000 | 474 | > 1350
20 | CCN1C(=O)N(CC(N)=O)C(=O)C12CCN(Cc1ccc(N(C)c3ccccc3)cc1)CC2 | 57800 | > 12500 | 7790
21 | Cc1cc(C)c(S(=O)(=O)NCc2ccc(Cl)cc2)c(C)c1 | 48900 | > 12500 | 6590
22 | CCCCCN(C(=O)COc1ccc(Cl)cc1)C(CC)c1nc2ccccc2c(=O)n1-c1cccc(Cl)c1 (configuration not stated) | > 10000 | 1420 | > 1380
23 | O=C(Cc1ccc(Cl)cc1)NNS(=O)(=O)c1ccc([N+](=O)[O-])cc1 | > 10000 | > 893 | > 1370
24 | CCC(=O)N1CCOc2c(cc(-c3csc4ccccc34)cc2OCCc2ccccn2)C1 | > 10000 | > 1620 | 1350
25 | CCOC(=O)c1[nH]nc(C(=O)c2ccccc2)c1-c1ccccc1 | > 10000 | > 393 | > 1350
26 | Cc1ccc(C2=NC(C(F)(F)F)(C(F)(F)F)N=C3C=CC(Cl)=CN32)cc1 | > 10000 | > 1210 | > 1300
27 | COc1ccccc1CNc1ncc(C(=O)NCc2ccccc2)c(NCCc2ccccc2)n1 | > 10000 | 1280 | > 1300

Row | Compound | CC50 [1] [nM] | EC50 (Plasmodium falciparum [2]) [nM] | EC50 (Plasmodium falciparum [3]) [nM]
28 | CCCN1CCC(NC2CCCc3c2[nH]c2ccc([N+](=O)[O-])cc32)CC1 (configuration not stated) | 28000 | 1160 | 3630
29 | CCN1/C(=C/c2sc3ccc(-c4ccccc4)cc3[n+]2CCO)C=Cc2ccccc21 | > 10000 | 955 | 1340
30 | O=C(O[Si](c1ccccc1)(c1ccccc1)c1ccccc1)c1ccccc1 | > 10000 | > 1250 | 1320
31 | Cc1ccc(Nc2nc(NN=Cc3ccc(-c4ccc(Cl)c([N+](=O)[O-])c4)o3)nc(N3CCOCC3)n2)c(Br)c1 | > 10000 | > 1060 | 1320
32 | O=c1c2c3c(sc2ncn1CCCc1ccccc1)CC(N1CCC(N2CCCCC2)CC1)CC3 (configuration not stated) | 14800 | 386 | 2020
33 | O=C(O)CSC(C(=O)Nc1ccc(Cl)cc1)c1ccccc1 (configuration not stated) | > 10000 | > 1620 | > 1360
34 | CC(=O)N1CCc2cc(Br)cc(S(=O)(=O)N3CCCC(C)C3)c21 (configuration not stated) | > 10000 | > 1730 | 1320
35 | COc1ccc(CN(CC2CCN(C(=O)c3ccccc3Cl)CC2)C(=O)c2ccc(Cl)cc2Cl)cc1 | 24300 | 7250 | 3310
36 | CCOC(=O)c1cnc2cc(Cl)c(OC)cc2c1NCCCN1CCOCC1 | > 10000 | 1370 | 1340
37 | CCc1ccc2c(c1)C(c1ccncc1)=NNC(c1ccncc1)=N2 | > 10000 | 887 | > 1300
38 | COc1ccc2c(c1)c1c3n2CCN(Cc2ccccc2)C3=[N+](C)CC1 | > 10000 | 442 | 1340
39 | O=C(NCc1ccccc1)c1cnc(NCCCn2ccnc2)nc1NC1CCCC1 | > 10000 | 624 | 1320
40 | O=C(NCCCN1CCCC1=O)C(=O)NCC(c1ccco1)N1CCOCC1 (configuration not stated) | > 10000 | > 1250 | 1350
41 | O=C(NCc1ccco1)c1cccc(Cl)c1Cl | > 10000 | > 1250 | 1340
42 | CCOP1(=O)COc2ccccc2OC1 | > 10000 | > 1140 | > 1380
43 | CCC(c1nc2ccccc2c(=O)n1-c1cccc(C)c1)N(CCc1ccccc1)C(=O)Nc1c(C(C)C)cccc1C(C)C (configuration not stated) | > 8510 | 1070 | 1100
44 | CC(C)N(CC(=O)Nc1cc(C(C)(C)C)nn1-c1ccc(Cl)c(Cl)c1)C(=O)c1ccc(C(F)(F)F)cc1 | > 10000 | 845 | 1330
45 | O=C(O)c1ccc([C@@H]2Nc3c(ccc4ccccc34)[C@@H]3C=CC[C@@H]32)cc1 | > 10000 | > 1250 | 1340
46 | CCCCCc1c(C)c(C#N)c2nc3ccccc3n2c1NCCN(CC)CC | > 10000 | > 1250 | 1320
47 | COc1ccccc1CNC(=O)CN1C(=O)c2cccnc2Oc2ccccc21 | > 10000 | > 586 | 1350
48 | Cc1ccc2nc(Cl)c3cc(C(=O)NCCN4CCN(C)CC4)sc3c2c1 | 85900 | 7770 | 11700
49 | Oc1cccc(-c2cncc(-c3cccnc3)n2)c1 | > 10000 | 1300 | 1290
50 | O=[N+]([O-])c1ccc(N2CCN(c3nc(NCCc4c[nH]c5ccccc45)c4ccccc4n3)CC2)cc1 | 14300 | 171 | 1980
51 | CN1CCCC1CCNc1ncc(C(=O)NCCc2ccccc2)c(NCC2CCCCC2)n1 (configuration not stated) | > 10000 | 598 | 1340
52 | Cc1nc(N2CCCCC2)c2c(C)c(C(=O)N3CCN(c4ccccc4F)CC3)sc2n1 | > 10000 | > 1540 | 1300
53 | CCCN1CCC(N2C[C@@H](NC3CCCCCCC3)C[C@H]2C(=O)NCCc2ccc3c(c2)OCO3)CC1 | > 10000 | > 1360 | > 1300
54 | COCCN1Cc2cccc(C(=O)Nc3ccc4c(c3)OCCO4)c2C1=O | > 10000 | > 1450 | 1390
